Reference: patent US6503939B2, “Combination regimens using 3,3-substituted indoline derivatives” (Wyeth, priority 1999, dated 2003)

melting point: 240 to 241 °C
Structure (SMILES): CC1Nc2ccc(-c3cccc([N+](=O)[O-])c3)cc2C1(C)C.Cl (stereo not shown)
